From ChEMBL document CHEMBL1154010, “Aziridine alkaloids as potential therapeutic agents” (Eur J Med Chem, 2009)
Converted amounts (≈) assume the structure as drawn.

Assays:
[1] = tested on: CCRF S-180; test: Antitumor activity against mouse S180 cells implanted in ip dosed ddY mouse assessed as tumor volume after 7 days; format: functional
[2] = tested on: Mus musculus; test: Toxicity in ip dosed ddY mouse bearing mouse S180 cells; format: organism-based, CCRF S-180; conditions: in vivo

Row | Structure (SMILES) | ED50 [1] [µg/mL] | LD50 [2] [µg/mL]
1 | COC1=C(C)C(=O)C2=C(C1=O)[C@@H](COC(N)=O)[C@@]1(OC)[C@H]3N[C@H]3CN21 [MITOMYCIN A] | 1.1 (≈ 3.15 µM) | 2.1
2 | COC1=C(C)C(=O)C2=C(C1=O)[C@H](COC(N)=O)[C@@]1(O)[C@@H]3[C@H](CN21)N3C (some centres undefined) [MITOMYCIN B] | 2.5 (≈ 7.16 µM) | 4.5
3 | C=C1C2=C(C(=O)C(C)=C(OC)C2=O)N2C[C@H]3[C@H](N3C)[C@]12OC (some centres undefined) [MITOMYCIN G] | 100 (≈ 331 µM) | 130
4 | C=C1C2=C(C(=O)C(C)=C(OC)C2=O)N2C[C@H]3[C@H](N3C)[C@]12O (some centres undefined) [MITOMYCIN H] | 6.8 (≈ 23.6 µM) | 12
5 | COC1=C(C)C(=O)C2=C(C1=O)[C@H](COC(N)=O)[C@@]1(OC)[C@@H]3[C@H](CN21)N3C (some centres undefined) [MITOMYCIN J] | 10 (≈ 27.5 µM) | 9
6 | C=C1C2=C(C(=O)C(C)=C(N)C2=O)N2C[C@H]3[C@H](N3C)[C@]12OC (some centres undefined) [MITOMYCIN K] | 35 (≈ 122 µM) | 22
7 | C=C1C2=C(C(=O)C(C)=C(N)C2=O)N2C[C@H]3[C@H](N3C)[C@]12O (some centres undefined) [MITOMYCIN Z] | 82 (≈ 300 µM) | 210
8 | CO[C@@]12[C@H](COC(N)=O)C3=C(C(=O)C(C)=C(N)C3=O)N1C[C@@H]1N[C@@H]12 [MITOMYCIN] | 4.4 (≈ 13.2 µM) | –
9 | COC1=C(C)C(=O)C2=C(C1=O)[C@@H](COC(N)=O)[C@@]1(OC)[C@@H]3[C@H](CN21)N3C (some centres undefined) [N-METHYL-MITOMYCIN A] | 1.3 (≈ 3.58 µM) | 5
10 | CO[C@@]12[C@H](COC(N)=O)C3=C(C(=O)C(C)=C(N)C3=O)N1C[C@H]1[C@@H]2N1C (some centres undefined) [PORFIROMYCIN] | 22 (≈ 63.2 µM) | 57
